Measured values published in US12655126B2, “Imidazole-pyrazole derivatives as antibacterials” (Hoffmann-La Roche Inc., priority 2020, dated 2026).
Counter-ions that a name gives are not always drawn.

System: Acinetobacter baumannii ATCC17961
Assay: Antimicrobial susceptibility testing: 90% growth inhibitory concentration (IC90) determination
Assay type: cell-based
Settings: Acinetobacter baumannii ATCC17961; Iso-Sensitest broth; growth by OD 600 nm over 16 h; 90% growth inhibitory concentration; read-out: ATCC 17961 IC90
Outline: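 Broth microdilution in Iso-Sensitest medium with twofold dilutions (e.g. 50 to 0.097 μM final) and inoculum ~5×10^(5) CFU/ml, 35±2 °C. OD600 was followed for 16 h; IC90 was derived from inhibition during logarithmic growth.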

| IC90 | Compound |
| --- | --- |
| 350 nM | COCCOc1ccc(-n2cc(-c3cnc(C(=O)Nc4ccc(C(=O)N5CCN(C(=O)C6CC[N+](C)(C)CC6)CC5)c(Cl)c4)n3C)c(C(F)(F)F)n2)nc1 [Example G1, N-[3-Chloro-4-[4-(1,1-dimethylpiperidin-1-ium-4-carbonyl)piperazine-1-carbonyl]phenyl]-5-[1-[5-(2-methoxyethoxy)-2-pyridyl]-3-(trifluoromethyl)pyrazol-4-yl]-1-methyl-imidazole-2-carboxamide; formate] |
| 610 nM | Cn1c(-c2cn(-c3ccc(N)cn3)nc2C(F)(F)F)cnc1C(=O)Nc1ccc(C(=O)N2CCC(C(=O)N3CC[N+](C)(C)CC3)CC2)c(Cl)c1 [Example H1, 5-[1-(5-Amino-2-pyridyl)-3-(trifluoromethyl)pyrazol-4-yl]-N-[3-chloro-4-[4-(4,4-dimethylpiperazin-4-ium-1-carbonyl)piperidine-1-carbonyl]phenyl]-1-methyl-imidazole-2-carboxamide; formate] |
| 9830 nM | Cn1c(-c2cn(-c3ccc(N)cn3)nc2C#N)cnc1C(=O)Nc1ccc(C(=O)N2CCN(C(=O)C3CC[N+](C)(C)CC3)CC2)c(Cl)c1 [Example J2, 5-[1-(5-amino-2-pyridyl)-3-cyano-pyrazol-4-yl]-N-[3-chloro-4-[4-(1,1-dimethylpiperidin-1-ium-4-carbonyl)piperazine-1-carbonyl]phenyl]-1-methyl-imidazole-2-carboxamide; 2,2,2-trifluoroacetate] |
| 10000 nM | Cc1nn(-c2ccc(N)cn2)cc1-c1cnc(C(=O)Nc2ccc(C(=O)N3CCN(C(=O)C4CC[N+](C)(C)CC4)CC3)c(Cl)c2)n1C [Example J3, 5-[1-(5-amino-2-pyridyl)-3-methyl-pyrazol-4-yl]-N-[3-chloro-4-[4-(1,1-dimethylpiperidin-1-ium-4-carbonyl)piperazine-1-carbonyl]phenyl]-1-methyl-imidazole-2-carboxamide; formate] |
| 4360 nM | Cc1c[nH]nc1-n1cc(-c2cnc(C(=O)Nc3ccc(C(=O)N4CCN(C(=O)C5CC[N+](C)(C)CC5)CC4)c(Cl)c3)n2C)c(C(F)(F)F)n1 [Example K2, N-[3-chloro-4-[4-(1,1-dimethylpiperidin-1-ium-4-carbonyl)piperazine-1-carbonyl]phenyl]-1-methyl-5-[1-(4-methyl-1H-pyrazol-3-yl)-3-(trifluoromethyl)pyrazol-4-yl]imidazole-2-carboxamide; 2,2,2-trifluoroacetate] |
| 1300 nM | COCc1c[nH]nc1-n1cc(-c2cnc(C(=O)Nc3ccc(C(=O)N4CCN(C(=O)C5CC[N+](C)(C)CC5)CC4)c(Cl)c3)n2C)c(C(F)(F)F)n1 [Example K3, N-[3-chloro-4-[4-(1,1-dimethylpiperidin-1-ium-4-carbonyl)piperazine-1-carbonyl]phenyl]-5-[1-[4-(methoxymethyl)-1H-pyrazol-3-yl]-3-(trifluoromethyl)pyrazol-4-yl]-1-methyl-imidazole-2-carboxamide] |
| 330 nM | CNC(=O)CCNc1ccc(-n2cc(-c3cnc(C(=O)Nc4ccc(C(=O)N5CCN(C(=O)C6CC[N+](C)(C)CC6)CC5)c(Cl)c4)n3C)c(C(F)(F)F)n2)nc1 [Example L2, N-[3-chloro-4-[4-(1,1-dimethylpiperidin-1-ium-4-carbonyl)piperazine-1-carbonyl]phenyl]-5-[1-[5-[[3-keto-3-(methylamino)propyl]amino]-2-pyridyl]-3-(trifluoromethyl)pyrazol-4-yl]-1-methyl-imidazole-2-carboxamide] |

Same assay, conditions: Acinetobacter baumannii, ATCC17961, 16 h, read-out: ATCC 17961 IC90

| Compound | IC90 |
| --- | --- |
| Cn1c(-c2cn(-c3ccc(N)nn3)nc2C(F)(F)F)cnc1C(=O)Nc1ccc(C(=O)N2CCN(C(=O)C3CC[N+](C)(C)CC3)CC2)c(Cl)c1 [Example K1, 5-[1-(6-Aminopyridazin-3-yl)-3-(trifluoromethyl)pyrazol-4-yl]-N-[3-chloro-4-[4-(1,1-dimethylpiperidin-1-ium-4-carbonyl)piperazine-1-carbonyl]phenyl]-1-methyl-imidazole-2-carboxamide; 2,2,2-trifluoroacetate] | 1600 nM |
| Cn1c(-c2cn(-c3ccc(NCCN)cn3)nc2C(F)(F)F)cnc1C(=O)Nc1ccc(C(=O)N2CCN(C(=O)C3CC[N+](C)(C)CC3)CC2)c(Cl)c1 [Example M1, 5-[1-[5-(2-aminoethylamino)-2-pyridyl]-3-(trifluoromethyl)pyrazol-4-yl]-N-[3-chloro-4-[4-(1,1-dimethylpiperidin-1-ium-4-carbonyl)piperazine-1-carbonyl]phenyl]-1-methyl-imidazole-2-carboxamide; 2,2,2-trifluoroacetic acid; 2,2,2-trifluoroacetate] | 100 nM |
